The values below come from PubChem BioAssay (NCI).

Each structure is given as a SMILES string.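 Five concentrations, 48 hours, 96-well plates. TGI: concentration producing complete growth inhibition.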 Some results are limits rather than exact numbers.

Some test systems named below: TK-10 renal; HCT-15 colon; NCI-H460 lung; MDA-N; OVCAR-3 ovarian; IGROV1 ovarian; DU-145 prostate; M14 melanoma; SF-295 CNS; SNB-75 CNS; T-47D breast.
Test in all cases: DTP human tumour cell line panel, 48 h

What is called TGI is the concentration giving total growth inhibition. Higher therefore signals lower sensitivity of the cells. Take `COC(=O)NC(Nc1ccc(C)cc1)(C(F)(F)F)C(F)(F)F`: the total growth inhibition concentration (TGI) in the assay on TK-10 renal, in the assay with HCT-15 colon, with NCI-H460 lung, with MDA-N, in the assay with OVCAR-3 ovarian and with IGROV1 ovarian was over 100 µM each time. Further, the TGI with DU-145 prostate, in the assay on M14 melanoma, in the assay on SF-295 CNS, in the assay with SNB-75 CNS and with T-47D breast was over 100 µM each time.
As for `C/C=C\C(CC(=O)NCCc1c[nH]c2ccccc12)CC(=O)OC` (centres undefined), the TGI in the assay on TK-10 renal, with HCT-15 colon, in the assay with NCI-H460 lung, with MDA-N, with OVCAR-3 ovarian and with IGROV1 ovarian was over 100 µM each time. In addition, the TGI in the assay on DU-145 prostate, with M14 melanoma, with SF-295 CNS, in the assay with SNB-75 CNS and in the assay with T-47D breast was over 100 µM in each case.
In the case of `CC(C)Oc1cc2c(cc1O)CC[C@@H]1[C@@H]2CC[C@]2(C)[C@@H](O)CC[C@@H]12`, the TGI stood at 54.6 µM in the assay on TK-10 renal; 19.1 µM in the assay on HCT-15 colon; 14.4 µM in the assay with NCI-H460 lung; 3.6 µM with MDA-N; 12 µM in the assay on OVCAR-3 ovarian; 42.9 µM in the assay on IGROV1 ovarian. Moreover, the TGI is 59.7 µM in the assay with DU-145 prostate; 18.4 µM with M14 melanoma; 11.8 µM in the assay with SF-295 CNS; 53.1 µM in the assay on SNB-75 CNS; 35.7 µM with T-47D breast.
In the case of `C=C1CC(Cn2cc(Br)c(=O)[nH]c2=O)(c2ccc(Br)cc2)OC1=O` (centres undefined), the TGI in the assay on TK-10 renal is 23 µM; in the assay with HCT-15 colon it was 3.85 µM; with NCI-H460 lung, 35.6 µM; with MDA-N, 7.46 µM; with OVCAR-3 ovarian, over 35 µM; with IGROV1 ovarian, 4.06 µM. The TGI is 15.5 µM with DU-145 prostate; 3.22 µM in the assay with M14 melanoma; 31 µM with SF-295 CNS; 26.7 µM in the assay with SNB-75 CNS; 5.04 µM with T-47D breast.
Take `O=P1(N(CCCl)CCCl)NCCCO1` (centres undefined): the TGI is over 250 µM in the assay with TK-10 renal; over 250 µM in the assay with HCT-15 colon; over 238 µM in the assay on NCI-H460 lung; over 250 µM with MDA-N; over 250 µM in the assay on OVCAR-3 ovarian; over 239 µM with IGROV1 ovarian. Also, the TGI was over 250 µM in the assay on DU-145 prostate; over 250 µM in the assay on M14 melanoma; over 246 µM in the assay with SF-295 CNS; over 250 µM with SNB-75 CNS; over 250 µM in the assay with T-47D breast.
For the compound `CN(c1ccc(Cl)cc1)S(=O)(=O)c1ccccc1`, the TGI with TK-10 renal, with HCT-15 colon, in the assay with NCI-H460 lung, in the assay on MDA-N, in the assay on OVCAR-3 ovarian and in the assay on IGROV1 ovarian was over 100 µM each time. In addition, the TGI in the assay on DU-145 prostate, with M14 melanoma, in the assay on SF-295 CNS, with SNB-75 CNS and with T-47D breast was over 100 µM each time.
Consider `CC(=O)Nc1nc(C)c(S(=O)(=O)NC(=O)N2c3ccccc3CCc3ccccc32)s1`, for which the TGI in the assay with TK-10 renal, in the assay with HCT-15 colon, in the assay with NCI-H460 lung, with MDA-N, with OVCAR-3 ovarian and with IGROV1 ovarian was over 100 µM in each case. In addition, the concentration for total growth inhibition (TGI) in the assay on DU-145 prostate, in the assay with M14 melanoma, in the assay with SF-295 CNS, in the assay on SNB-75 CNS and in the assay on T-47D breast was over 100 µM throughout.
Regarding `O=C1Sc2cc3ccccc3cc2C(=O)Sc2cc3ccccc3cc21`, the TGI is over 100 µM with TK-10 renal; 90.7 µM in the assay on HCT-15 colon; over 100 µM in the assay on NCI-H460 lung; over 100 µM with MDA-N; over 63.5 µM in the assay on OVCAR-3 ovarian; over 100 µM in the assay on IGROV1 ovarian. Besides, the TGI with DU-145 prostate was over 100 µM; in the assay with M14 melanoma, over 63.9 µM; in the assay with SF-295 CNS it was over 100 µM; in the assay with SNB-75 CNS it was over 100 µM; in the assay on T-47D breast it was over 75 µM.
`CCOC(=O)c1nc2ccccc2nc1Nc1ccc(F)cc1`: the TGI in the assay with TK-10 renal is over 100 µM; with HCT-15 colon it was over 100 µM; with NCI-H460 lung, over 100 µM; with MDA-N, over 100 µM; in the assay with OVCAR-3 ovarian it was over 100 µM; in the assay on IGROV1 ovarian, 44.8 µM. Also, the TGI was over 100 µM in the assay on DU-145 prostate; over 100 µM with M14 melanoma; 28.9 µM with SF-295 CNS; 18.5 µM in the assay on SNB-75 CNS; over 86.1 µM in the assay on T-47D breast.
Take `CC1Cc2c(cc(N)nc2Br)NC1=O` (centres undefined): the TGI with TK-10 renal, in the assay with HCT-15 colon, in the assay on NCI-H460 lung, in the assay on MDA-N, with OVCAR-3 ovarian and in the assay on IGROV1 ovarian was over 100 µM each time. In addition, the TGI in the assay with DU-145 prostate, with M14 melanoma, in the assay with SF-295 CNS, with SNB-75 CNS and with T-47D breast was over 100 µM throughout.
`CCCCCCCCCCC[N+]1(Cc2ccccc2)CC2CCN(Cc3ccccc3)CC2C1` (centres undefined): the TGI in the assay on TK-10 renal came out at 2.57 µM; in the assay on HCT-15 colon, 2.96 µM; in the assay on NCI-H460 lung, 2.58 µM; with MDA-N, 1.25 µM; in the assay on OVCAR-3 ovarian it was 1.28 µM; in the assay on IGROV1 ovarian, 1.78 µM. For the same compound, the TGI with DU-145 prostate was determined as 1.51 µM; with M14 melanoma, 1.48 µM; with SF-295 CNS, 2.28 µM; in the assay on SNB-75 CNS, 2.45 µM; with T-47D breast, 1.37 µM.
As for `CCn1c(O)c(C(=O)NC(C)c2ccc([N+](=O)[O-])cc2)c(=O)n(CC)c1=S` (centres undefined), the TGI in the assay with TK-10 renal was 17 µM; with HCT-15 colon it was 10.7 µM; with NCI-H460 lung it was 9.36 µM; in the assay with MDA-N, 13.6 µM; in the assay with OVCAR-3 ovarian, 10.5 µM; in the assay on IGROV1 ovarian, 11.4 µM. For the same compound, the concentration for total growth inhibition (TGI) is 8.98 µM in the assay with DU-145 prostate; 6.04 µM with M14 melanoma; 3.7 µM in the assay with SF-295 CNS; 5.34 µM in the assay on SNB-75 CNS; 14.2 µM in the assay on T-47D breast.
With `O=C(O)c1cc(Nc2c(O)c3c(c(O)c2Cl)C(=O)C=CC3=O)ccc1O`, the concentration for total growth inhibition (TGI) in the assay on TK-10 renal, in the assay with HCT-15 colon, with NCI-H460 lung, in the assay on MDA-N, in the assay with OVCAR-3 ovarian and with IGROV1 ovarian was over 10 µM throughout. Moreover, the TGI in the assay on DU-145 prostate, with M14 melanoma, in the assay on SF-295 CNS, in the assay on SNB-75 CNS and with T-47D breast was over 10 µM in each case.
For `O=C1/C(=C(/Br)I)c2ccccc2-c2ccccc21`, the TGI in the assay on TK-10 renal is 21.3 µM; in the assay on HCT-15 colon, 16.6 µM; with NCI-H460 lung it was 41.2 µM; in the assay on MDA-N, 9.78 µM; in the assay on OVCAR-3 ovarian, 24.6 µM; in the assay on IGROV1 ovarian, 27.7 µM. Further, the TGI with DU-145 prostate is 30 µM; with M14 melanoma, 27.6 µM; with SF-295 CNS, 31.4 µM; in the assay on SNB-75 CNS it was 29.7 µM; in the assay with T-47D breast, over 80.4 µM.
Turning to `CC(C)(C)C(=O)O[C@H]1C=C[C@@H](O)[C@@H]2[C@H]1[C@@H]1C=C[C@H]2C1`, the TGI in the assay with TK-10 renal is over 100 µM; with HCT-15 colon, 83.5 µM; in the assay on NCI-H460 lung, over 100 µM; in the assay with MDA-N, over 100 µM; with OVCAR-3 ovarian it was over 100 µM; in the assay with IGROV1 ovarian it was over 100 µM. Moreover, the TGI with DU-145 prostate, in the assay on M14 melanoma, in the assay with SF-295 CNS, in the assay with SNB-75 CNS and in the assay with T-47D breast was over 100 µM in each case.
On to `CC(C)CCCC(C)[C@H]1CC[C@H]2NCCCC[C@]12C` (some centres undefined), for which the TGI came out at 11.9 µM in the assay on TK-10 renal; 6.91 µM with HCT-15 colon; 4.25 µM in the assay on NCI-H460 lung; 3.99 µM with MDA-N; 31.7 µM in the assay with OVCAR-3 ovarian; 19.8 µM in the assay with IGROV1 ovarian. Moreover, the TGI came to 25.6 µM in the assay on DU-145 prostate; 4.29 µM in the assay with M14 melanoma; 5.2 µM in the assay on SF-295 CNS; 16 µM in the assay with SNB-75 CNS; 8.93 µM in the assay on T-47D breast.
With `CCCC(CC)c1cc(O)c(O)cc1C(CC)CCC` (centres undefined), the TGI in the assay on TK-10 renal, in the assay with HCT-15 colon, in the assay with NCI-H460 lung, with MDA-N, in the assay on OVCAR-3 ovarian and in the assay on IGROV1 ovarian was over 10 µM throughout. In addition, the total growth inhibition concentration (TGI) in the assay on DU-145 prostate, in the assay on M14 melanoma, in the assay on SF-295 CNS, in the assay with SNB-75 CNS and in the assay with T-47D breast was over 10 µM in each case.
As for `Cn1c(O)c(/C=N/c2ncccn2)c(=O)[nH]c1=O`, the TGI in the assay with TK-10 renal, with HCT-15 colon, in the assay on NCI-H460 lung, in the assay with MDA-N, with OVCAR-3 ovarian and in the assay on IGROV1 ovarian was over 100 µM each time. In addition, the total growth inhibition concentration (TGI) with DU-145 prostate, in the assay on M14 melanoma, with SF-295 CNS, in the assay with SNB-75 CNS and in the assay with T-47D breast was over 100 µM throughout.
Consider `O=C1c2ccccc2C2(c3ccc(Cl)cc3)N[C@@H]3CCCC[C@@H]3N12` (some centres undefined), for which the TGI in the assay on TK-10 renal, in the assay with HCT-15 colon, in the assay on NCI-H460 lung, in the assay with MDA-N, in the assay with OVCAR-3 ovarian and in the assay with IGROV1 ovarian was over 100 µM each time. For the same compound, the TGI with DU-145 prostate, with M14 melanoma, in the assay on SF-295 CNS, in the assay with SNB-75 CNS and with T-47D breast was over 100 µM each time.
